In the supplement of paper PMC12463676, “Small-molecule dissolution of stress granules by redox modulation benefits ALS models” (Nature Chemical Biology, 2025):

Assays:
lipoamide = compound: NC(=O)CCCCC1CCSS1 [lipoamide]; assay: thermal stability z-score vs DMSO; higher = more thermally stabilized by treatment; conditions: HeLa, lipoamide concentration 100 µM
Protocol: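 Cellular thermal proteome profiling in HeLa cells. Cells were treated with 100 µM lipoamide for 1 h, with or without 1 mM arsenate for a further 1 h, then heated to ten temperatures (37-66.3 °C), and soluble protein was quantified by TMT mass spectrometry relative to 0.1% DMSO controls. The thermal stability score (sum of log2 fold changes minus the abundance score) was transformed to a z-score; mean of n = 3 experiments.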

potassium arsenate = compound: O=[As]([O-])(O)O.[K+] [potassium arsenate]; assay: as above; conditions: HeLa; arsenate concentration 1 mM
Protocol: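 Cellular thermal proteome profiling in HeLa cells treated with 1 mM arsenate for 1 h (DMSO pretreatment), heated to ten temperatures (37-66.3 °C). Soluble protein was quantified by TMT mass spectrometry relative to DMSO controls; the thermal stability score was transformed to a z-score; mean of n = 3 experiments.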

[1] = arsenate co-treatment: 1 mM arsenate 1 h
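Note: each temperature applied for 3 min, abundance score taken as mean log2 fold change at the two lowest temperatures, z-score obtained by mean subtraction and division by SD.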

UniProt Q9Y6E0, sequence (Q9Y6E0 whole entry, looked up): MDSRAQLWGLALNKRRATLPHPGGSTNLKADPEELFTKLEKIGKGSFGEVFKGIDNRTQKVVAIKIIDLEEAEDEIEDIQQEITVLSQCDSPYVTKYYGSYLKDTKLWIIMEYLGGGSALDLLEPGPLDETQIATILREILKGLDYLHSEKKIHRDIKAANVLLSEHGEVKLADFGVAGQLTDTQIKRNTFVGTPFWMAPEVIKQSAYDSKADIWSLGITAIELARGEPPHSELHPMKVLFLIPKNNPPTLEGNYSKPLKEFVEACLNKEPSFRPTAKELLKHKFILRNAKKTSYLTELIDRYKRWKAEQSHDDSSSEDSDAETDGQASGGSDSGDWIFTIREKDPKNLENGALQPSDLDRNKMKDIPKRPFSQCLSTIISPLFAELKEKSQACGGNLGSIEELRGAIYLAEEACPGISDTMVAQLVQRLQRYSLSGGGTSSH
UniProt Q5TBB1, sequence (Q5TBB1 whole entry): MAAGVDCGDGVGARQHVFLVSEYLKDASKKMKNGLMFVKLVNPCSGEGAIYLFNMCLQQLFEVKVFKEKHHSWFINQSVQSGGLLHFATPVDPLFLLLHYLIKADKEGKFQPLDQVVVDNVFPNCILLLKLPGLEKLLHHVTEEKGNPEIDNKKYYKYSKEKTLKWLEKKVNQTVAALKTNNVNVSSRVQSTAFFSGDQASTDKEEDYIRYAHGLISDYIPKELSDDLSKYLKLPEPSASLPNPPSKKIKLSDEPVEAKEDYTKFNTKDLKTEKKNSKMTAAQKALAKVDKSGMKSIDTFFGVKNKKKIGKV
UniProt Q9P2B2, sequence (Q9P2B2 whole entry): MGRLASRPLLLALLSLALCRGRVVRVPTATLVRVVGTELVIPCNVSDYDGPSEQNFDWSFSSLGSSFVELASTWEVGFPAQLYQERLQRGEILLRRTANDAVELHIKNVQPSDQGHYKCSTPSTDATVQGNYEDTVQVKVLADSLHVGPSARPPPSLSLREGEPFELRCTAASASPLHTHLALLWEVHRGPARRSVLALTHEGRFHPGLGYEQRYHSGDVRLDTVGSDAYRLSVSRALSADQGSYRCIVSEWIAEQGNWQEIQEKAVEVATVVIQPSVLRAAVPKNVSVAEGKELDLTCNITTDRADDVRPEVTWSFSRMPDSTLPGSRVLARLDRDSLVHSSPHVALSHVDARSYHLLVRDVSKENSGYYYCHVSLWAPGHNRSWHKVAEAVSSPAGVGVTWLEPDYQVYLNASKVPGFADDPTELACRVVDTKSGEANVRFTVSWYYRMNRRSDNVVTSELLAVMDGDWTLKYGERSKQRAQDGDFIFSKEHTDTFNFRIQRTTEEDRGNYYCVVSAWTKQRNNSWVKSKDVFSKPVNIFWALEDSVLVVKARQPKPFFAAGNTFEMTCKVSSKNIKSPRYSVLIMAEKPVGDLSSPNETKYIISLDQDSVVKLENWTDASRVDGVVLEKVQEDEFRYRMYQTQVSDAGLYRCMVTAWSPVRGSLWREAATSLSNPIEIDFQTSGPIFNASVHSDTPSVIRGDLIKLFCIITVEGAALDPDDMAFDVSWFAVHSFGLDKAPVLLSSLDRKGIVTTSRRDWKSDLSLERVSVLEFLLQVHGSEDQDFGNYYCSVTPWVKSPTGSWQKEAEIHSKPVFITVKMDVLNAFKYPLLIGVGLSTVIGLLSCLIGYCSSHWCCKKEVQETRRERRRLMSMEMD
UniProt P10515, sequence (P10515 whole entry): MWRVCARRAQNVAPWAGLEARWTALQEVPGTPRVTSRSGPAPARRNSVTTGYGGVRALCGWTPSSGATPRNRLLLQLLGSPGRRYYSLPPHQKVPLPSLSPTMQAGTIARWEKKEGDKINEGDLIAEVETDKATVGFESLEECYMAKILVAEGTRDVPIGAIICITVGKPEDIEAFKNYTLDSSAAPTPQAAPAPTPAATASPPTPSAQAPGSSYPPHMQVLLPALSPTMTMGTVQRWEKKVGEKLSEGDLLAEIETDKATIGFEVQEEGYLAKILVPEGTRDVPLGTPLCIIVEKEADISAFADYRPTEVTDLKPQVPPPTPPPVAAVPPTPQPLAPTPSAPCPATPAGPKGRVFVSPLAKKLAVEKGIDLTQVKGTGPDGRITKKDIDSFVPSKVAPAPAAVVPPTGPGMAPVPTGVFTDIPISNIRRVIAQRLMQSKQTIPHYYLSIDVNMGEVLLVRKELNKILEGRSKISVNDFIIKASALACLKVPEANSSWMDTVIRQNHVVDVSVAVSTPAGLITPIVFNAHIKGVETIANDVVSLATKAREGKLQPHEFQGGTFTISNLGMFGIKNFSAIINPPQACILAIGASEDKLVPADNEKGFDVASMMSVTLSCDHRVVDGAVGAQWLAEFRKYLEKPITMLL
UniProt P62879, sequence (P62879 whole entry): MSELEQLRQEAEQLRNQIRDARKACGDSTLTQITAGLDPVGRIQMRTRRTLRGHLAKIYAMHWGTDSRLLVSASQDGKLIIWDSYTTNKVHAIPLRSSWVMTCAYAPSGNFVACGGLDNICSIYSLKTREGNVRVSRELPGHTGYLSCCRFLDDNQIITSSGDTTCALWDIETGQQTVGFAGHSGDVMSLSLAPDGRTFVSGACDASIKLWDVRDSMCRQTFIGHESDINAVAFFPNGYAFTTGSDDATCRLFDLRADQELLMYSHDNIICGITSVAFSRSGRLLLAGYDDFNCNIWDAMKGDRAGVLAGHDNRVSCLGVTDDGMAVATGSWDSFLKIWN
UniProt P49840, sequence (P49840 whole entry, looked up): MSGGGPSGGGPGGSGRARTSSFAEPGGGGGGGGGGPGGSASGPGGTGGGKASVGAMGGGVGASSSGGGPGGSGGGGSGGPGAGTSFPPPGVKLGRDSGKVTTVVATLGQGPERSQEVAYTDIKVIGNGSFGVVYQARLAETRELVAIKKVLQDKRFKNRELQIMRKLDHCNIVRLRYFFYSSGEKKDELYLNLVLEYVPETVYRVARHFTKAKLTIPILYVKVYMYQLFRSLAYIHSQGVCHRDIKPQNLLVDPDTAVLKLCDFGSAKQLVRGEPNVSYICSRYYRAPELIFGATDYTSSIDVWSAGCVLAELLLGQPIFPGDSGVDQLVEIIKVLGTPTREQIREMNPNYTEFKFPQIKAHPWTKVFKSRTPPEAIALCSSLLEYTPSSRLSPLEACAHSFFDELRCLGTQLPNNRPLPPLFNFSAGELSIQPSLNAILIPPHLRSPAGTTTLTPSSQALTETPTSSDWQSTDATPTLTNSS
UniProt Q8IYB8, sequence (Q8IYB8 whole entry): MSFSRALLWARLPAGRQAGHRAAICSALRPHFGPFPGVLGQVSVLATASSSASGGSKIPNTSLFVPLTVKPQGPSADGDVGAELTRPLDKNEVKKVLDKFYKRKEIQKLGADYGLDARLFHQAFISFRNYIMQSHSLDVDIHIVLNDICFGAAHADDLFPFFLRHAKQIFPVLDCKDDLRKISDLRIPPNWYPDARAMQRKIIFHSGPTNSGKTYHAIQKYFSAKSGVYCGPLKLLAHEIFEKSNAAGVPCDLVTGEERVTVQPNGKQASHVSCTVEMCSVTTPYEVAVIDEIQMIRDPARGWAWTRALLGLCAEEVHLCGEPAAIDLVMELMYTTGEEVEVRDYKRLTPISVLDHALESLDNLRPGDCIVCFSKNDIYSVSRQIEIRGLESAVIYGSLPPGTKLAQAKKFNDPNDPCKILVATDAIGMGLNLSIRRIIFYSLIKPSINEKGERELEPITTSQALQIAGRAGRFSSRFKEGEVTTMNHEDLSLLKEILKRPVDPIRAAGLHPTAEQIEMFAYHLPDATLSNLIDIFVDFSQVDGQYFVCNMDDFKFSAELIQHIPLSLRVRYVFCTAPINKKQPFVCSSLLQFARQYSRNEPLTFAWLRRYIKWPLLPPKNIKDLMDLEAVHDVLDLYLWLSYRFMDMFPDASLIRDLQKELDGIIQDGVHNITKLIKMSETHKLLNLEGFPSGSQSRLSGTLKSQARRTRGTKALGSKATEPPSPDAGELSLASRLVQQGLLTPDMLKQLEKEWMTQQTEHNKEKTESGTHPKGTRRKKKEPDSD
UniProt Q9Y3A6, sequence (Q9Y3A6 whole entry): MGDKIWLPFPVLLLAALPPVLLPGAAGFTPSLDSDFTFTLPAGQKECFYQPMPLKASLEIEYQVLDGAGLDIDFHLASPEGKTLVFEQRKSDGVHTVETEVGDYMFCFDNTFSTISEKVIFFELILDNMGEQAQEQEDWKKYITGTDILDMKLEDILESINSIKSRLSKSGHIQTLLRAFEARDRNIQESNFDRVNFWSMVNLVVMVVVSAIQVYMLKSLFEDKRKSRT
UniProt Q8N3Y7, sequence (Q8N3Y7 whole entry): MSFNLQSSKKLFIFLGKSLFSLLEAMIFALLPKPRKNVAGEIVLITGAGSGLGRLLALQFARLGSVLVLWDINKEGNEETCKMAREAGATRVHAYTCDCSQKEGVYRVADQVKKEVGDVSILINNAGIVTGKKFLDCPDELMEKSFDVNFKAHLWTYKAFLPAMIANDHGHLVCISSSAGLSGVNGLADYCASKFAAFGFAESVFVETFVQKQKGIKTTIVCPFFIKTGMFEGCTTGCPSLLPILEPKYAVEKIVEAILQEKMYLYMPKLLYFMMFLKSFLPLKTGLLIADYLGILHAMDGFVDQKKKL
UniProt P61289, sequence (P61289 whole entry): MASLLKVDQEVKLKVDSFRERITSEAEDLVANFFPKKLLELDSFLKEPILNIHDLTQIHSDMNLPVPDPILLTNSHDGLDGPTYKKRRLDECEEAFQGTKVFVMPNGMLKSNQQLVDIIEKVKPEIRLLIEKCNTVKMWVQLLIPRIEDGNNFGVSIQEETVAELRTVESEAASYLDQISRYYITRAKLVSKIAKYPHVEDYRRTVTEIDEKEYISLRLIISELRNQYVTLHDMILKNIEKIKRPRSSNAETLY
UniProt Q00059, sequence (Q00059 whole entry): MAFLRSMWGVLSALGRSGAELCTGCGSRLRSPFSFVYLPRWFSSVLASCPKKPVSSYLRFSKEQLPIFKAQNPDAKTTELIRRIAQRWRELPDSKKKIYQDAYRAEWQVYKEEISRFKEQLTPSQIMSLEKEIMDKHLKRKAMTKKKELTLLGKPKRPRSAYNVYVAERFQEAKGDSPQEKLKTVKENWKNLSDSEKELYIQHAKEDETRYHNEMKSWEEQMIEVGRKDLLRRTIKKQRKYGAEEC

Target | thermal stability z-score (lipoamide; [1]) | thermal stability z-score (lipoamide; arsenate co-treatment: none) | thermal stability z-score (potassium arsenate)
STK24 (UniProt Q9Y6E0) | 0.0491 | -0.118 | 0.0137
ARL13B (UniProt Q3SXY8) | -0.415 | -0.29 | -1.37
TIMM44 (UniProt O43615) | 0.147 | 0.291 | -0.65
DLAT (UniProt P10515) | -2.72 | -0.583 | -11.2
COMMD5 (UniProt Q9GZQ3) | -0.212 | 0.573 | 0.0506
PSME3 (UniProt P61289) | 0.957 | 0.849 | 0.504
RNASEH2B (UniProt Q5TBB1) | 0.719 | 0.517 | -0.161
ATXN3 (UniProt P54252) | 0.199 | 0.278 | -0.115
USP39 (UniProt Q53GS9) | -0.384 | -0.174 | -0.489
TMED5 (UniProt Q9Y3A6) | -1.78 | -1.51 | 0.321
CLCC1 (UniProt Q96S66) | -5.63 | -5.9 | 0.408
S100A4 (UniProt P26447) | -0.414 | -0.145 | -1.43
PACS1 (UniProt Q6VY07) | -0.0876 | 0.134 | 0.404
EIF2B5 (UniProt Q13144) | -0.392 | 0.253 | 0.878
GSK3A (UniProt P49840) | -0.401 | -0.28 | -0.881
DOCK7 (UniProt Q96N67) | -0.23 | 0.0599 | 0.962
R3HCC1L (UniProt Q7Z5L2) | 0.00414 | 0.282 | 0.0177
GNB2 (UniProt P62879) | 0.297 | 1.21 | -0.44

Target | thermal stability z-score (lipoamide; [1]) | thermal stability z-score (lipoamide; arsenate co-treatment: none) | thermal stability z-score (potassium arsenate)
FKBPL (UniProt Q9UIM3) | 0.222 | 0.087 | -0.0646
SUPV3L1 (UniProt Q8IYB8) | -0.171 | -0.116 | -0.478
FAHD2A (UniProt Q96GK7) | 0.146 | -0.0859 | -0.0563
MTRF1L (UniProt Q9UGC7) | -1.57 | -0.343 | 0.646
TFAM (UniProt Q00059) | -0.198 | -0.126 | -0.121
PTGFRN (UniProt Q9P2B2) | 0.216 | 0.0155 | 0.0412
CMBL (UniProt Q96DG6) | 0.865 | 0.482 | -0.162
YY1 (UniProt P25490) | 0.0187 | -0.101 | 0.338
UBAP2 (UniProt Q5T6F2) | 0.26 | -0.00688 | -0.47
GRIPAP1 (UniProt Q4V328) | 0.163 | 0.254 | 1.53
MESDC2 (UniProt Q14696) | -1.36 | -1.28 | 0.346
SLC38A10 (UniProt Q9HBR0) | 0.639 | 0.226 | -0.0408
PHF14 (UniProt O94880) | -0.247 | 0.314 | -0.242
SETD7 (UniProt Q8WTS6) | -0.766 | 0.0448 | -0.402
SOS1 (UniProt Q07889) | 0.324 | 0.304 | 0.167
SDR16C5 (UniProt Q8N3Y7) | -0.26 | -0.252 | 0.0129
C3 (UniProt P01024) | -1.67 | -1.75 | -0.371
RUVBL2 (UniProt Q9Y230) | -0.408 | -0.0917 | -0.75
